Laboratory results as given in PubChem BioAssay AID588566 (The Scripps Research Institute Molecular Screening Center, 2011).

Molecular target: Neuropeptides B/W receptor type 1 (Homo sapiens) (UniProt P48145)
Assay: human NPBW1 receptor blockade, IC50 – cell-based, fluorescence, dose response, set 5, late-stage follow-up (AID 588566)
Settings: GPR7-expressing cells, fluorescence antagonist assay

Chain of Neuropeptides B/W receptor type 1 (Homo sapiens) (P48145 whole entry, looked up): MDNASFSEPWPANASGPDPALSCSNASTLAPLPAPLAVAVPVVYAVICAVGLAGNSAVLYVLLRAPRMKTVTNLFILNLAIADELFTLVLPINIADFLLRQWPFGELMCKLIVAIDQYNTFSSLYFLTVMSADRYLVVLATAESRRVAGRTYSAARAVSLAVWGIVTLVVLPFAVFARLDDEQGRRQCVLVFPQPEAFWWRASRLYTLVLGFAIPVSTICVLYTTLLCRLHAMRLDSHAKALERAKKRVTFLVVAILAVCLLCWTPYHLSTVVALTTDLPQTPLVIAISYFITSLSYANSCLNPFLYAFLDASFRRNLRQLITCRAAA

| SMILES | IC50 |
| --- | --- |
| COc1ccc(Oc2c(Cl)cnn(C3=Nc4cc(Cl)ccc4Oc4ncccc43)c2=O)cc1 | 527 nM |
| COc1ccc(Oc2c(Cl)cnn(C3c4ccccc4Oc4ccccc43)c2=O)cc1 | 3110 nM |
| COc1ccc(Oc2c(Cl)cnn(-c3nc4ccccc4c(=O)c4ccccc34)c2=O)cc1 | 2210 nM |

The next lines start with the values.

| IC50 | SMILES |
| --- | --- |
| 834 nM | O=c1c(Oc2ccc3c(c2)CCC3)c(Cl)cnn1Cc1cccc2ccccc12 |
| 8550 nM | CCc1cccc(Oc2c(Cl)cnn(Cc3cccc4ccccc34)c2=O)c1 |
| 1790 nM | COc1cc(Oc2c(Cl)cnn(Cc3cccc4ccccc34)c2=O)cc(OC)c1OC |
